Common to all, as to test: inhibition of tumour cell growth, NCI panel, 48 h
In test [1] the test system is HT29 colon.
For test [2], the system named is MALME-3M melanoma.
In test [3] the test system is MCF7 breast.
Test [4] has as its system MDA-MB-231 breast.
Test [5] has as its system MOLT-4 leukemia.
Test [6] relates to OVCAR-5 ovarian.
The test system of test [7] is OVCAR-8 ovarian.
For test [8], the system named is SF-268 CNS.
The test system of test [9] is T-47D breast.
The test system of test [10] is TK-10 renal.

Each structure is given as a SMILES string. Several values for one entry are separate records, joined by “and”; a condition that tells them apart may be missing. Equal values may be shown once.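 96-well plates; 48 h exposure; 5 concentrations. Endpoints by linear interpolation between flanking doses. Not reached: highest tested concentration assigned. Here, GI50 denotes the concentration required for 50% inhibition of growth. At the TGI there is no net growth.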

As to `Cc1ccc(/C(=N/Nc2ccc([N+](=O)[O-])cc2)Sc2cc(Cl)c(C)cc2S(N)(=O)=O)cc1`, the GI50 in [1] was 1.31 µM; in [2], 1.91 µM; in [3], 2.6 µM; in test [4], 0.8 µM; in [5], 3.35 µM; in test [6], 2.45 µM. Also, the GI50 in test [7] is 7.38 µM; in test [8] it was 1.91 µM; in test [9], 3.14 µM; in [10], 1.61 µM. Also, the TGI was 3.12 µM in [1]; 4.58 µM in test [2]; above 21.5 µM in [3]; 2.24 µM in test [4]; 12.3 µM in test [5]; 6.16 µM in test [6]. The TGI in [7] was above 100 µM; in [8] it was 7.37 µM; in test [9] it was above 23.2 µM; in test [10], 3.38 µM.

For `Cn1c(I)c(C#C[Si](C)(C)C)c(=O)n(C(=O)c2ccccc2)c1=O`, the GI50 in test [1] was 3.32 µM; in test [2], 2.72 µM; in [3], 1.92 µM; in test [4], 5.22 µM; in test [5], 1.25 µM; in test [6] it was 14.3 µM. Further, the GI50 in [7] is 12.4 µM; in test [8], 3.22 µM; in test [9] it was 2.03 µM; in [10], 3.81 µM. Moreover, the TGI was 15.8 µM in [1]; 6.63 µM in [2]; 5.65 µM in [3]; 11.8 µM in [4]; above 21.9 µM in test [5]; 28.5 µM in test [6]. The TGI in test [7] is 26.1 µM; in [8], 10.2 µM; in test [9], 5.91 µM; in test [10], 14 µM.

On to `COc1cc(O)ccc1C(=S)SC`, for which the TGI was above 100 µM in [1]; above 100 µM in [2]; above 100 µM in test [3]; 88.4 µM in test [4]; 92.2 µM in test [5]; above 100 µM in [6]. In addition, the TGI in test [7], in test [8], in [9] and in test [10] was above 100 µM each time.

In the case of `COC(=O)C(C(=O)C(=O)Nc1c(C)cccc1C(C)(C)C)c1nc2ccc(Cl)cc2[nH]c1=O` (configuration not stated), the TGI in test [1], in [2], in test [3], in [4], in test [5] and in test [6] was above 100 µM in each case. Besides, the TGI in test [7], in [8], in [9] and in test [10] was above 100 µM throughout.

Regarding `O=S(=O)(NC1=NCCN1C(=S)SN1CCn2c1nsc2=S)c1ccc(Cl)cc1`, the GI50 in test [1] is 7.34 µM; in test [2] it was 4.75 µM; in test [3], 2.78 µM; in test [4], 4.06 µM; in test [5] it was 3.56 µM; in test [6], 17.9 µM. Besides, the GI50 is 7.13 µM in test [7], 6.5 µM in [8], 5.38 µM in test [9] and 12.3 µM in test [10]. The TGI in test [1] is above 100 µM; in test [2] it was 18.1 µM; in [3], 17.1 µM; in test [4], 19.4 µM; in test [5], 21.7 µM; in [6], 36.5 µM. In addition, the TGI in [7] is above 100 µM; in [8], 28 µM; in test [9], 23.3 µM; in [10] it was 25.6 µM.

With `O=C(Nc1n[nH]c2cc(-c3cc(F)ccc3F)ccc12)C1CC1`, the GI50 in test [1] was 9.42 µM; in test [2], 14.2 µM; in [3], 7.43 µM; in [4], 19.5 µM; in test [5], 14.3 µM; in test [6], above 22.3 µM. The GI50 in test [7] is above 22 µM; in [8] it was 19.5 µM; in test [9] it was 11.8 µM; in [10], above 25 µM. Also, the TGI in test [1] is above 25 µM; in test [2], above 25 µM; in test [3] it was above 19.8 µM; in test [4], above 25 µM; in test [5] it was above 25 µM; in test [6], above 25 µM. The TGI in [7], in test [8], in test [9] and in test [10] was above 25 µM in each case.

For `Cc1n[nH]c2ccccc2c1=O`, the TGI in test [1], in test [2], in test [3], in test [4], in [5] and in test [6] was above 100 µM each time. In addition, the TGI in test [7], in [8], in test [9] and in test [10] was above 100 µM each time.

In the case of `[N-]=[N+]=CC(=O)CCC(N)C(=O)O` (configuration not stated), the GI50 in test [1] is 0.727 µM; in [2] it was 7.27 µM; in test [3], 0.641 µM; in test [5] it was 0.468 µM; in test [7], 7.03 µM; in test [8], 1.65 µM. In addition, the GI50 is 16.2 µM in test [9] and 35.6 µM in [10]. Further, the TGI is 75.7 µM in test [1]; above 250 µM in test [2]; above 250 µM in test [3]; above 250 µM in test [4]; above 186 µM in test [6]; above 218 µM in test [7]. Besides, the TGI in test [8] was 190 µM; in test [9], above 250 µM; in [10], 244 µM.

`COc1cc(/C=N/NC(=O)c2cnn3c2NC(c2ccccc2)C3)ccc1OC1CCCC1` (configuration not stated): the GI50 in test [1] is 0.467 µM; in test [2], 1.02 µM; in test [3] it was 0.373 µM; in test [4], 1.67 µM; in [5] it was 1.23 µM; in test [6] it was 1.84 µM. Also, the GI50 in test [7] was 1.57 µM; in test [8] it was 1.88 µM; in test [9], 0.704 µM; in test [10], 4.06 µM. The TGI in test [1] was 8.55 µM; in [2] it was 4.28 µM; in [3], 4.07 µM; in test [4] it was 7.85 µM; in test [5] it was 11.1 µM; in test [6] it was 10.9 µM. For the same molecule, the TGI in test [7] is 7.61 µM; in test [8], 13.1 µM; in test [9] it was 10.4 µM; in test [10] it was 16.3 µM.

As for `COC1=CC(=O)O/C1=C(\OC)C1OC1c1ccccc1` (configuration not stated), the TGI in test [1], in test [2], in test [3], in [4], in test [5] and in [6] was above 100 µM throughout. In addition, the TGI in test [7], in test [8], in test [9] and in test [10] was above 100 µM each time.

In the case of `O=C1C(=O)c2c(nc3ccc(C(F)(F)F)cn23)-c2ccccc21`, the GI50 in test [1] was 0.923 µM; in test [2] it was 0.158 µM; in test [3], 0.168 µM; in test [4], 0.215 µM; in [5] it was 0.237 µM; in test [6], 0.414 µM. Besides, the GI50 in [7] was 0.253 µM; in test [8], 0.224 µM; in [9] it was 0.214 µM; in test [10], 0.738 µM. Also, the TGI in [1] amounted to 3.61 µM; in [2] it was 0.295 µM; in test [3], 0.4 µM; in test [4], 0.74 µM; in [5], 0.602 µM; in [6] it was 0.998 µM. Further, the TGI stood at 0.651 µM in test [7], 0.609 µM in test [8], 0.57 µM in test [9] and 1.24 µM in test [10].

For `Cc1cccc(C2NC(=O)c3ccccc3N2)c1` (configuration not stated), the TGI in [1] is above 26.3 µM; in test [2], above 100 µM; in [3], above 100 µM; in [4], above 87.6 µM; in [5], above 23.9 µM; in test [6] it was above 100 µM. The TGI in test [7], in [8], in test [9] and in test [10] was above 100 µM throughout.

Take `COc1ccc2c(c1)C(=O)c1c-2c(OCCCN(C)C)nc2cc(Br)ccc12`: the GI50 in test [1] is 10.5 µM; in test [2] it was 1.87 µM; in [3] it was 2.32 µM; in [4] it was 3.18 µM; in test [5], 3.09 µM; in [6], 1.71 µM. The GI50 in test [7] is 2.63 µM; in [8], 2.5 µM; in test [9], 10.8 µM; in test [10], 4.17 µM. Moreover, the TGI in [1] was 26.8 µM; in test [2] it was 4.64 µM; in test [3], 13.7 µM; in [4] it was 13.5 µM; in test [5] it was 18.7 µM; in test [6], 3.59 µM. Also, the TGI was 6.95 µM in [7], 10.4 µM in [8], 32.2 µM in [9] and 13.8 µM in test [10].

`CC(C)C[C@@H](N)[C@@H](O)C(=O)N[C@H](C(=O)N[C@H](C(=O)N[C@@H](CC(=O)O)C(=O)O)C(C)C)C(C)C`: the GI50 in test [1], in [2], in [3], in test [4], in test [5] and in test [6] was above 20 µM throughout. Also, the GI50 in test [7], in test [8], in [9] and in test [10] was above 20 µM each time. Further, the TGI in test [1], in test [2], in [3], in [4], in test [5] and in test [6] was above 20 µM each time. The TGI in test [7], in test [8], in test [9] and in [10] was above 20 µM in each case.

With `C[C@@H]1C[C@@H]([C@H](O)CC2CC(=O)NC(=O)C2)C(=O)[C@@H](C)C1`, the GI50 in test [1] was 0.272 µM; in [2] it was 0.235 µM; in test [3], 0.216 µM; in [4], 0.608 µM; in [5], 0.139 µM; in test [6], 0.317 µM. Besides, the GI50 in [7] is 0.202 µM; in test [8], 0.264 µM; in [9], 0.231 µM; in test [10], 0.22 µM. Besides, the TGI in test [1] is 1.97 µM and 2.4 µM; in test [2], 4.7 µM and 3.5 µM; in test [3] it was 7.15 µM; in test [4], 7.16 µM; in test [5], 2.06 µM and 0.518 µM; in [6], 14.6 µM and 4.02 µM. Besides, the TGI is 1.7 µM and 1.27 µM in test [7]; 1.94 µM in test [8]; 5.07 µM in test [9]; 2.39 µM and 1.01 µM in test [10].

On to `OCc1ccc(N(Cc2ccc(F)cc2)Cc2ccc(F)cc2)cc1Cl`, for which the GI50 in [1] was 9.66 µM; in test [2], 18.4 µM; in test [3] it was 3.72 µM; in test [4], 11.8 µM; in test [5], 7.84 µM; in test [6], 2.11 µM. In addition, the GI50 is 12.5 µM in test [7], 12.4 µM in test [8], 3.31 µM in test [9] and 2.08 µM in [10]. In addition, the TGI in test [1] turned out to be 23.3 µM; in [2] it was 35.4 µM; in test [3], 17 µM; in test [4] it was 25.9 µM; in test [5] it was 30.1 µM; in test [6] it was 11.9 µM. The TGI in test [7] is 27.8 µM; in [8], 26.9 µM; in [9], 15.4 µM; in test [10], 11.2 µM.

The values are drawn from PubChem BioAssay (NCI).
